Like-named read-outs stand apart in the source and are kept apart here. Values belong to the molecule of their own block, whether it stands above or below them.
Tests used:
17α-hydroxylase = target: T1, 17α-hydroxylase (Homo sapiens, UniProt P05093); experiment: Determination of 17α-hydroxylase (human testicular microsomes, 3H-progesterone substrate, HPLC); assay type: biochemical
T1 construct: The microsomal pellet was then resuspended in 50mM sodium phosphate pH 7.4/glycerol (3/1 v/v) and stored in aliquots in liquid nitrogen; from tissue; host or cells: human testis microsomes
T1 sequence (P05093 1-508): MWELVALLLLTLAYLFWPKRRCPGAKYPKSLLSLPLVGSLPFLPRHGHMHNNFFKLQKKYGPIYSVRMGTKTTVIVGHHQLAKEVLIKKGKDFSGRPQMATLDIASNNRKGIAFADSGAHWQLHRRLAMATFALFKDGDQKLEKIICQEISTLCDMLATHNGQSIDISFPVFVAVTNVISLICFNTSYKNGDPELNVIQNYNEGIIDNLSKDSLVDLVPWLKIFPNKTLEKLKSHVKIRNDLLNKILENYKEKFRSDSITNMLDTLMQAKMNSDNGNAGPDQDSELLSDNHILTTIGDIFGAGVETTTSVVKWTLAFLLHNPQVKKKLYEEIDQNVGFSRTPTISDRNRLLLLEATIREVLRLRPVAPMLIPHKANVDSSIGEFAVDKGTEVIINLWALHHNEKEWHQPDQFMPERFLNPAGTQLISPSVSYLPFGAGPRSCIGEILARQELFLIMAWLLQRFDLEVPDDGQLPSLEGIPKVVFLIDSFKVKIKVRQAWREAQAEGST

C17-C20 lyase = target: T2, C17-C20 lyase (Homo sapiens, UniProt P05093); experiment: Determination of C17-C20 lyase (human testicular microsomes, 3H-17α-hydroxyprogesterone substrate, HPLC); assay type: biochemical
T2 construct: The microsomal pellet was then resuspended in 50mM sodium phosphate pH 7.4/glycerol (3/1 v/v) and stored in aliquots in liquid nitrogen; from tissue; host or cells: human testis microsomes
T2 sequence (P05093 1-508): T1 sequence (P05093 1-508)

testosterone = experiment: In vivo endocrine test in mice: RIA of plasma testosterone; conditions: 2 weeks, plasma 24 hours after last injection, mean ± standard error
Male HWT mice [1] = assay type: in vivo; conditions: daily for 2 weeks, mean ± standard error
Description: (§1) Male HWT mice, 12 weeks old, were treated daily for 2 weeks, with 5 animals per treatment group. The test compounds were the compound of Examples 1 and 4 (as representative of compounds of the invention having the pregenolone-like and progesterone-like skeletons respectively). Ketoconazole was also tested at three different doses. The test compounds were made up in 5% benzyl alcohol, 95% safflower oil, and were given i.p.. In addition to an untreated control group of animals, there was also a solvent control group which received the same volume of liquid as the test group (5ml/kg) but no test compound. All animals were sacrificed 24 hours after the last injection. Blood was collected by cardiac puncture into heparinized tubes, and the plasma used for RIA (radio immunoassay) of testosterone and luteinising hormone. The following organs were removed and weighed: adrenals, prostate, seminal vesicles, testes, kidneys. There was no significant body weight loss in any group of mice during the experiments.

Male HWT mice [2] = conditions: mouse, in vivo; for Post mortem examination: appearance of organs / Post mortem examination: deposits: ip
Description: as §1
In Ketoconazole-treated animals, adhesions were found in 2/5,2/5,4/5 of the low/middle/top dose groups. […] The livers were brown in the middle/top dose groups.

aromatase = target: T3, aromatase (Homo sapiens, UniProt P11511); experiment: biochemical
T3 sequence (P11511 1-503): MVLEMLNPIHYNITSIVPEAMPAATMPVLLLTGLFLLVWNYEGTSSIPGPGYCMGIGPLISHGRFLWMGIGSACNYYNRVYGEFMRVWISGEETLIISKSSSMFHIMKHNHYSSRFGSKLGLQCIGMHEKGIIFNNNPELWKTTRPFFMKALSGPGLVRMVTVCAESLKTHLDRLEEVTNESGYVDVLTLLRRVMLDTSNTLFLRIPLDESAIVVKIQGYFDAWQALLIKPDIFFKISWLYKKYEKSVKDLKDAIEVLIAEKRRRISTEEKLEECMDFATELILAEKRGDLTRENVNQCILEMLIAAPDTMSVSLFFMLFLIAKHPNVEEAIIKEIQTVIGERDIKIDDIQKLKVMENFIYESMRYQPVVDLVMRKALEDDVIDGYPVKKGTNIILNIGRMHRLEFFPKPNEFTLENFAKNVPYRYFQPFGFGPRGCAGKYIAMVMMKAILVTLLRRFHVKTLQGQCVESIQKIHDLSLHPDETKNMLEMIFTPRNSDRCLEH

luteinising hormone = experiment: In vivo endocrine test in mice: RIA of plasma luteinising hormone; conditions: 2 weeks, plasma 24 hours after last injection, mean ± standard error
Description: as §1

[3] = 10nM hydroxylase, read-out: IC50 (µM) Hydroylase
[4] = 25nM lyase, read-out: IC50 (µM) Lyase
[5] = approx. 4nM enzyme, read-out: IC50 (µM) Hydroxylase
[6] = approx. 4nM enzyme, read-out: IC50 (µM) Lyase

Structure (SMILES): C[C@]12CC[C@@H](O)C[C@@H]1CC[C@@H]1[C@@H]2CC[C@]2(C)C(c3cccnc3)=CC[C@@H]12 [Ex. 8, 17-(3-Pyridyl)-5α-androst-16-en-3α-ol]
IC50 (17α-hydroxylase): 0.0043 µM
IC50 (C17-C20 lyase): 0.0025 µM

Structure (SMILES): CC(=O)O[C@H]1CC[C@@]2(C)C(=CC[C@@H]3[C@@H]2CC[C@]2(C)C(c4cccnc4)=CC[C@@H]32)C1 [Ex. 1, 3β-Acetoxy-17-(3-pyridyl)androsta-5,16-diene]
Testosterone (testosterone; 0.02Mmol/Kg/Day i.p.): 2.7 ± 0.5 nM
Testosterone (testosterone; 0.5Mmol/Kg/Day i.p.): 0.1 ± 0.0 nM
Testosterone (testosterone; i.p.): 0.2 ± 0.1 nM
Mean weight Kidneys (Male HWT mice [1]; 0.02 mmol/kg/day i.p.): 604 ± 24 mg
Mean weight Prostate (Male HWT mice [1]; 0.02 mmol/kg/day i.p.): 8.0 ± 0.6 mg
Mean weight Seminal Vesicles (Male HWT mice [1]; 0.02 mmol/kg/day i.p.): 136 ± 4 mg
Mean weight Testes (Male HWT mice [1]; 0.02 mmol/kg/day i.p.): 134 ± 4 mg
Mean weight Kidneys (Male HWT mice [1]; 0.1 mmol/kg/day i.p.): 500 ± 8 mg
Mean weight Prostate (Male HWT mice [1]; 0.1 mmol/kg/day i.p.): 5.3 ± 0.3 mg
Mean weight Seminal Vesicles (Male HWT mice [1]; 0.1 mmol/kg/day i.p.): 51 ± 6 mg
Mean weight Testes (Male HWT mice [1]; 0.1 mmol/kg/day i.p.): 95 ± 3 mg
Mean weight Kidneys (Male HWT mice [1]; 0.5 mmol/kg/day i.p.): 449 ± 12 mg
Mean weight Prostate (Male HWT mice [1]; 0.5 mmol/kg/day i.p.): 5.6 ± 0.6 mg
Mean weight Seminal Vesicles (Male HWT mice [1]; 0.5 mmol/kg/day i.p.): 25 ± 2 mg
Mean weight Testes (Male HWT mice [1]; 0.5 mmol/kg/day i.p.): 56 ± 2 mg
Post mortem examination: appearance of organs (Male HWT mice [2]): all organs looked normal
Post mortem examination: deposits (Male HWT mice [2]): oil/white deposits i.p.
IC50 (aromatase): > 20000 nM
LH (luteinising hormone; 0.02Mmol/Kg/Day i.p.): 3.4 ± 0.5 ng/mL
LH (luteinising hormone; 0.1Mmol/Kg/Day i.p.): 2.55 ± 0.45 ng/mL
LH (luteinising hormone; 0.5Mmol/Kg/Day i.p.): 2.25 ± 0.67 ng/mL

Structure (SMILES): C[C@]12CC[C@H](O)CC1=CC[C@@H]1[C@@H]2CC[C@]2(C)C(c3ccncc3)=CC[C@@H]12 [Example 4-pyridyl, reference compound]
IC50 (17α-hydroxylase; [3]): 5 µM
IC50 (C17-C20 lyase; [4]): 2 µM

Structure (SMILES): CC(=O)N1CCN(c2ccc(OCC3COC(Cn4ccnc4)(c4ccc(Cl)cc4Cl)O3)cc2)CC1 (stereo not drawn) [Ketoconazole, reference compound]
Mean weight Kidneys (Male HWT mice [1]; 0.01mmol/kg/day i.p.): 637 ± 22 mg
Mean weight Prostate (Male HWT mice [1]; 0.01mmol/kg/day i.p.): 9.1 ± 0.8 mg
Mean weight Seminal Vesicles (Male HWT mice [1]; 0.01mmol/kg/day i.p.): 235 ± 18 mg
Mean weight Testes (Male HWT mice [1]; 0.01mmol/kg/day i.p.): 141 ± 5 mg
Mean weight Kidneys (Male HWT mice [1]; 0.225 mmol/kg/day i.p.): 574 ± 23 mg
Mean weight Prostate (Male HWT mice [1]; 0.225 mmol/kg/day i.p.): 10.8 ± 1.4 mg
Mean weight Seminal Vesicles (Male HWT mice [1]; 0.225 mmol/kg/day i.p.): 171 ± 5 mg
Mean weight Testes (Male HWT mice [1]; 0.225 mmol/kg/day i.p.): 127 ± 7 mg
Mean weight Kidneys (Male HWT mice [1]; 0.5 mmol/kg/day i.p.): 710 ± 30 mg
Mean weight Prostate (Male HWT mice [1]; 0.5 mmol/kg/day i.p.): 9.3 ± 0.9 mg
Mean weight Seminal Vesicles (Male HWT mice [1]; 0.5 mmol/kg/day i.p.): 179 ± 20 mg
Mean weight Testes (Male HWT mice [1]; 0.5 mmol/kg/day i.p.): 133 ± 6 mg
Post mortem examination: livers (Male HWT mice [2]): brown
LH (luteinising hormone; 0.1Mmol/Kg/Day i.p.): 0.39 ± 0.14 ng/mL
LH (luteinising hormone; 0.225Mmol/Kg/Day i.p.): 0.75 ± 0.02 ng/mL
LH (luteinising hormone; 0.5Mmol/Kg/Day i.p.): 0.76 ± 0.03 ng/mL

Structure (SMILES): C[C@]12CCC(=O)C[C@@H]1CC[C@@H]1[C@@H]2CC[C@]2(C)C(c3cccnc3)=CC[C@@H]12 [Ex. 9, 17-(3-Pyridyl)-5α-androst-16-en-3-one]
IC50 (C17-C20 lyase): 0.003 µM

IC50 (17α-hydroxylase; [5]): 0.0125 µM
IC50 (C17-C20 lyase; [6]): 0.0056 µM
Structure (SMILES): C[C@]12CCC=CC1=CC[C@@H]1[C@@H]2CC[C@]2(C)C(c3cccnc3)=CC[C@@H]12 [Ex. 3, 17-(3-Pyridyl)androsta-3,5,16-triene]

Structure (SMILES): C[C@]12CCC(=O)C=C1[C@H](F)C[C@@H]1[C@@H]2CC[C@]2(C)C(c3cccnc3)=CC[C@@H]12 [Ex. 12, 6β-Fluoro-17-(3-pyridyl)androsta-4,16-dien-3-one]
IC50 (17α-hydroxylase; [5]): 0.0033 µM
IC50 (C17-C20 lyase; [6]): 0.0022 µM

Structure (SMILES): C[C@]12CC[C@H](O)CC1=CC[C@@H]1[C@@H]2CC[C@]2(C)C(Cc3ccccn3)=CC[C@@H]12 [Example 2-picolyl, reference compound]
IC50 (17α-hydroxylase; [3]): > 10 µM
IC50 (C17-C20 lyase; [4]): > 10 µM

Structure (SMILES): C[C@]12CCC(=O)C=C1[C@@H](F)C[C@@H]1[C@@H]2CC[C@]2(C)C(c3cccnc3)=CC[C@@H]12 [Ex. 13, 6α-Fluoro-17-(3-pyridyl)androsta-4,16-dien-3-one]
IC50 (17α-hydroxylase; [5]): 0.0053 µM
IC50 (C17-C20 lyase; [6]): 0.0032 µM

Structure (SMILES): C[C@]12CC[C@@H]3c4ccc(O)cc4CC[C@H]3[C@@H]1CC=C2c1cccnc1 [Ex. 6, 17-(3-Pyridyl)estra-1,3,5[10],16-tetraen-3-ol]
IC50 (17α-hydroxylase; [5]): 0.0026 µM
IC50 (C17-C20 lyase; [6]): 0.0018 µM

Structure (SMILES): C[C@]12CC[C@H](O)CC1=CC[C@@H]1[C@@H]2CC[C@]2(C)C(c3cccnc3)=CC[C@@H]12 [Ex. 2, 17-(3-Pyridyl)androsta-5,16-dien-3β-ol]
IC50 (17α-hydroxylase; [5]): 0.004 µM
IC50 (C17-C20 lyase; [6]): 0.0029 µM

Structure (SMILES): C[C@]12CC[C@H](O)CC1=CC[C@@H]1[C@@H]2CC[C@]2(C)C(c3ccccn3)=CC[C@@H]12 [Example 2-Pyridyl, reference compound]
IC50 (17α-hydroxylase): 0.32 µM
IC50 (C17-C20 lyase): 0.13 µM

Structure (SMILES): C[C@]12CCC(=O)C=C1CC[C@@H]1[C@@H]2C(=O)C[C@]2(C)C(c3cccnc3)=CC[C@@H]12 [Ex. 10, 17-(3-Pyridyl)androsta-4,16-diene-3,11-dione]
IC50 (17α-hydroxylase; [5]): 0.0091 µM
IC50 (C17-C20 lyase; [6]): 0.0025 µM

Structure (SMILES): C[C@]12CCC(=O)C=C1CC[C@@H]1[C@@H]2CC[C@]2(C)C(c3cccnc3)=CC[C@@H]12 [Ex. 4, 17-(3-Pyridyl)androsta-4,16-dien-3-one]
Testosterone (testosterone; 0.02Mmol/Kg/Day i.p.): 4.5 ± 0.3 nM
Testosterone (testosterone; 0.5Mmol/Kg/Day i.p.): 0.4 ± 0.1 nM
Testosterone (testosterone; i.p.): 3.5 ± 1.0 nM
IC50 (17α-hydroxylase; [5]): 0.0028 µM
Mean weight Kidneys (Male HWT mice [1]; 0.02 mmol/kg/day i.p.): 599 ± 29 mg
Mean weight Prostate (Male HWT mice [1]; 0.02 mmol/kg/day i.p.): 5.9 ± 0.8 mg
Mean weight Seminal Vesicles (Male HWT mice [1]; 0.02 mmol/kg/day i.p.): 108 ± 4 mg
Mean weight Testes (Male HWT mice [1]; 0.02 mmol/kg/day i.p.): 117 ± 9 mg
Mean weight Kidneys (Male HWT mice [1]; 0.1 mmol/kg/day i.p.): 549 ± 28 mg
Mean weight Prostate (Male HWT mice [1]; 0.1 mmol/kg/day i.p.): 6.4 ± 0.5 mg
Mean weight Seminal Vesicles (Male HWT mice [1]; 0.1 mmol/kg/day i.p.): 61 ± 9 mg
Mean weight Testes (Male HWT mice [1]; 0.1 mmol/kg/day i.p.): 105 ± 5 mg
Mean weight Kidneys (Male HWT mice [1]; 0.5 mmol/kg/day i.p.): 468 ± 15 mg
Mean weight Prostate (Male HWT mice [1]; 0.5 mmol/kg/day i.p.): 4.1 ± 0.5 mg
Mean weight Seminal Vesicles (Male HWT mice [1]; 0.5 mmol/kg/day i.p.): 25 ± 1 mg
Mean weight Testes (Male HWT mice [1]; 0.5 mmol/kg/day i.p.): 59 ± 2 mg
IC50 (C17-C20 lyase; [6]): 0.0021 µM
Post mortem examination: appearance of organs (Male HWT mice [2]): all organs looked normal
Post mortem examination: deposits (Male HWT mice [2]): white deposits throughout the abdomen
IC50 (aromatase): 1000 nM
